# Reference: patent US20220274947A1, “NOVEL HETEROARYL-TRIAZOLE COMPOUNDS AS PESTICIDES” (Bayer Aktiengesellschaft, priority 2019, published 2022)
# Columns and labels:
# Format in all cases: in vivo
# Spodoptera frugiperda = Spodoptera frugiperda spray test; settings: in Zea mays, 168 h, read-out: activity (mortality)
# Method: Spodoptera Fruaiperda—Spray Test
# Solvent: 78.0 parts by weight acetone • 1.5 parts by weight dimethylformamide Emulsifier: alkylarylpolyglycol ether
# (§1) To produce a suitable preparation of active compound, 1 part by weight of active compound is mixed with the stated amount of solvents and is diluted with water, containing an emulsifier concentration of 1000 ppm, to the desired concentration. Further test concentrations are prepared by dilution with emulsifier containing water.
# Maize (Zea mays) leaf sections are sprayed with a preparation of the active ingredient of the desired concentration. Once dry, the leaf sections are infested with fall armyworm larvae (Spodoptera frugiperda).
# After 7 days mortality in % is determined. 100% means all caterpillars have been killed and 0% means none of the caterpillars have been killed.
# Diabrotica balteata = Diabrotica balteata spray test; settings: 168 h, wheat seeds, larvae, after 7 days, read-out: activity (efficacy: 100% means all seedlings have grown up like in the untreated, uninfected control); for pest or weed control at 32 µg/disc, 100 g/ha: application rate 100 g/ha (=32 μg/well); for pest or weed control at 160 µg/disc, 500 g/ha: application rate 500 g/ha (=160 μg/well)
# Method: Diabrotica balteata—Spray Test Solvent: 78.0 parts by weight of acetone • • 1.5 parts by weight of dimethylformamide Emulsifier: alkylarylpolyglycol ether
# as §1, with “solvent,” for “solvents”, “and the concentrate” for “and”
# Soaked wheat seeds (Triticum aestivum) are placed in a multiple well plate filled with agar and some water and are incubated for 1 day to germinate (5 seeds per well). The germinated wheat seeds are sprayed with a test solution containing the desired concentration of the active ingredient. Afterwards each unit is infected with 10-20 larvae of the banded cucumber beetle (Diabrotica balteata).
# After 7 days efficacy in % is determined. 100% means all the seedlings have grown up like in the untreated, uninfected control; 0% means none of the seedlings have grown.
# Rhipicephalus microplus [1] = assay: Rhipicephalus (Boophilus) microplus in-vitro contact test, larval cattle tick, strain Parkhurst (BOOPMI Cont); settings: application rate 5 μg/cm^2 (=500 g/ha), tick larvae, after 48 hours, read-out: activity (efficacy: 100% means all larvae are dead or moribund)
# Method: Rhipicephalus (Boophilus) Microplus—In-Vitro Contact Tests Larval Cattle Tick (Strain Parkhurst, Resistant Against Synthetic Pyrethroids) (BOOPMI Cont)
# 9 mg compound is solved in 1 mL acetone and diluted with acetone to the desired concentration. 250 μL of the test solution is filled in 25 mL glass test tubes and homogeneously distributed on the inner walls by rotation and tilting on a shaking device (2 h at 30 rpm). With a compound concentration of 900 ppm, an inner surface of 44.7 cm^2 and a homogeneous distribution, a dose of 5 μg/cm^2 is achieved.
# After the solvent has evaporated, each test tube is filled with 20-50 cattle tick larvae (Rhipicephalus microplus), closed with a perforated lid and incubated in a horizontal position at 85% relative humidity and 27° C. in an incubator. After 48 hours efficacy is determined. The larvae are patted on the ground of the tubes and negative geotactic behavior is recorded.
# An efficacy of 100% means all larvae are dead or moribund; 0% means no larvae are dead or moribund.
# Rhipicephalus microplus [2] = assay: Rhipicephalus (Boophilus) microplus injection test (BOOPMI Inj); settings: 168 h, injection into adult engorged female ticks, egg deposition after 7 days, read-out: activity (efficacy: 100% means all eggs are infertile); for pest or weed control at 0.004 mg: application rate 4 μg/tick; for pest or weed control at 0.02 mg: application rate 20 μg/tick
# Method: Rhipicephalus (Boophilus) Microplus—Injection Test (BOOPMI Inj)
# Solvent: dimethyl sulfoxide
# To produce a suitable preparation of active compound, 10 mg of active compound are dissolved in 0.5 mL solvent, and the concentrate is diluted with solvent to the desired concentration.
# Five adult engorged female ticks (Rhipicephalus microplus) are injected with 1 μL compound solution into the abdomen. The ticks are transferred into replica plates and incubated in a climate chamber.
# After 7 days egg deposition of fertile eggs is monitored. Eggs where fertility is not visible are stored in a climate chamber till hatching after about 42 days. An efficacy of 100% means all eggs are infertile; 0% means all eggs are fertile.
# Rhipicephalus sanguineus = Rhipicephalus sanguineus in-vitro contact test, adult brown dog ticks (RHIPSA Cont); settings: 48 h, after 48 hours, read-out: activity (efficacy: 100% means all ticks are dead or moribund); for pest or weed control at 1 µg/cm2, 100 g/ha: application rate 1 μg/cm^2 (=100 g/ha); for pest or weed control at 5 µg/cm2, 500 g/ha: application rate 5 μg/cm^2 (=500 g/ha)
# Method: Rhipicephalus sanguineus-In-Vitro Contact Tests with Adult Brown Dog Ticks ([…] Cont) 9 mg compound is solved in 1 mL acetone and diluted with acetone to the desired concentration. 250 μL of the test solution is filled in 25 mL glass test tubes and homogeneously distributed on the inner walls by rotation and tilting on a shaking device (2 h at 30 rpm). […] After 48 hours efficacy is determined. The ticks are patted on the ground of the tubes and are incubated on a heating plate at 45-50° C. for at most 5 minutes. Immotile or uncoordinated moving ticks, which are not able to escape the heat by climbing upwards, are marked as dead or moribund.
Structure (SMILES),mortality at 500 g/ha (Spodoptera frugiperda) [%],"pest or weed control at 32 µg/disc, 100 g/ha (Diabrotica balteata) [%]",mortality at 100 g/ha (Spodoptera frugiperda) [%],pest or weed control at 5 µg/cm2 (Rhipicephalus microplus [1]) [%],pest or weed control at 0.004 mg (Rhipicephalus microplus [2]) [%],"pest or weed control at 160 µg/disc, 500 g/ha (Diabrotica balteata) [%]",pest or weed control at 0.02 mg (Rhipicephalus microplus [2]) [%],"pest or weed control at 1 µg/cm2, 100 g/ha (Rhipicephalus sanguineus) [%]","pest or weed control at 5 µg/cm2, 500 g/ha (Rhipicephalus sanguineus) [%]"
C[C@H](NC(=O)c1cc(Cl)cc(OC(F)(F)F)c1)c1ncnn1-c1cc(NC(=O)c2ccc(F)cc2)ccn1 [II- 20],100,–,–,–,–,–,–,–,–
CC(NC(=O)c1cc(Cl)cc(OC(F)(F)F)c1)c1nc(Cl)nn1-c1ccc(C#N)cn1 (stereo not drawn) [I-60],–,100,83,100,–,–,–,–,–
COc1nc([C@H](C)NC(=O)c2cc(F)cc(C#N)c2)n(-c2ccc(C#N)cn2)n1 [I-62],–,100,–,90,100,–,–,–,–
C[C@H](NC(=O)c1cc(Cl)cc(C(F)(F)C(F)(F)F)c1)c1ncnn1-c1nccs1 [II-66],100,100,–,100,100,100,100,–,–
CC(C)c1nc([C@H](C)NC(=O)c2cccc(C(F)(F)F)n2)n(-c2ccc(C#N)cn2)n1 [I-22],–,100,–,–,80,–,100,–,–
CC(C)Oc1cc(Br)cc(C(=O)N[C@@H](C)c2ncnn2-c2ccc(C#N)cn2)c1 [II-108],–,100,100,90,80,–,–,80,–
CC(NC(=O)c1cc(Br)cc(OC(F)(F)F)c1)c1nc(Cl)nn1-c1ccc(C#N)cn1 (stereo not drawn) [I-55],–,100,100,80,–,–,–,–,–
"CC(NC(=O)c1cc(C(F)(F)F)cc(C(F)(F)F)c1)c1nc(Cl)nn1-c1ccc(C#N)cn1 (racemic) [I-39, 3,5-di(trifluoromethyl)-N-{1-[3-chloro-1-(3-cyano-pyridin-6-yl)-1H-1,2,4-triazol-5-yl]ethyl}-benzamide]",–,100,100,100,100,–,100,–,–
CC(NC(=O)c1cc(Br)cc(Br)c1)c1nc(Br)nn1-c1ccc(C#N)cn1 (stereo not drawn) [I-53],–,100,100,100,–,–,–,–,–
CC(C)Oc1nc([C@H](C)NC(=O)c2cc(Cl)cc(C(F)(F)F)c2)n(-c2ccc(C#N)cn2)n1 [I-16],100,–,–,100,100,100,100,–,–
CC(NC(=O)c1cc(Cl)cc(C(F)(F)F)c1)c1nc(Cl)nn1-c1ccc(C#N)cn1 (stereo not drawn) [I-57],–,100,100,100,–,–,–,–,–
CC(NC(=O)c1cc(Br)cc(Br)c1)c1nc(Cl)nn1-c1ccc(C#N)cn1 (stereo not drawn) [I-54],–,–,100,100,–,–,–,–,–
CC(C)Oc1nc([C@H](C)NC(=O)c2cc(C(F)(F)F)cc(C(F)(F)F)c2)n(-c2ccc(C#N)cn2)n1 [I-17],100,100,100,100,100,100,100,–,–
Cc1nc([C@H](C)NC(=O)c2ccc(Cl)cn2)n(-c2ccc(C#N)cn2)n1 [II-56],–,–,–,80,80,–,100,–,–
C[C@H](NC(=O)c1cc(Cl)cc(C(F)(F)C(F)(F)F)c1)c1ncnn1-c1ncc(Br)s1 [II-67],100,–,–,100,100,100,100,–,–
Cc1nc([C@H](C)NC(=O)c2cc(Br)cc(C(F)(F)F)n2)n(-c2ccc(C#N)cn2)n1 [II-55],–,–,–,100,100,–,100,–,–
C[C@H](NC(=O)c1cc(Cl)cc(C(F)(F)C(F)(F)F)c1)c1ncnn1-c1ncc(Cl)s1 [II-68],83,100,–,100,80,100,100,–,100
CC(C)Oc1nc([C@H](C)NC(=O)c2cc(Cl)cc(Cl)c2)n(-c2ccc(C#N)cn2)n1 [I-18],83,–,–,90,–,100,100,–,–
CC(NC(=O)c1cc(Cl)cc(Cl)c1)c1nc(Cl)nn1-c1ccc(C#N)cn1 (stereo not drawn) [I-58],–,–,83,100,–,–,–,–,–
CC(NC(=O)c1cc(Br)cc(C(F)(F)F)c1)c1nc(Cl)nn1-c1ccc(C#N)cn1 (stereo not drawn) [I-40],–,100,100,100,100,–,100,–,100
Cc1nc([C@H](C)NC(=O)c2cccc(Cl)n2)n(-c2ccc(C#N)cn2)n1 [II-51],–,–,–,90,100,–,100,100,100
CC(NC(=O)c1cncc(C(F)(F)F)c1)c1nc(Cl)nn1-c1ccc(C#N)cn1 (stereo not drawn) [I-59],–,–,100,100,80,–,–,–,–
CC(NC(=O)c1cc(Cl)cc(C(F)(F)F)c1)c1nc(Br)nn1-c1ccc(C#N)cn1 (stereo not drawn) [I-49],–,100,100,100,–,–,–,–,–
C[C@H](NC(=O)c1cc(Br)cc(Br)c1)c1ncnn1-c1ccc(C#N)cn1 [II- 13],–,–,–,–,–,100,–,–,–
C[C@H](NC(=O)c1cc(Cl)cc(SC(F)(F)F)c1)c1nc(C2CC2)nn1-c1ccc(C#N)cn1 [I-45],–,100,100,100,100,–,–,–,–
CC(NC(=O)c1cc(Br)cc(OC(F)(F)F)c1)c1nc(Br)nn1-c1ccc(C#N)cn1 (stereo not drawn) [I-56],–,100,100,100,–,–,–,–,–
CC(NC(=O)c1cc(Cl)nc(C(F)(F)F)c1)c1nc(Cl)nn1-c1ccc(C#N)cn1 (stereo not drawn) [I-52],–,100,100,100,–,–,–,–,–
C[C@H](NC(=O)c1cc(Br)cc(C(F)(F)F)n1)c1ncnn1-c1ccc(C#N)cn1 [II-58],–,–,–,–,–,–,0,–,–
